The values below come from patent US7132546B2, “Aniline derivatives or salts thereof and cytokine production inhibitors containing the same” (Ishihara Sangyo Kaisha, Ltd., priority 2000, dated 2006).

What is called melting point is the temperature of the solid-liquid transition.

Data set [1] deals with interleukin 5 (IL-5) production. Kind of data set: Cytokine production inhibitory effect: IL-5 production by murine spleen cells treated with anti-mouse CD3 antibody and IL-2 (ELISA). The data set is classed as cell-based, Balb/c mice. Conditions: anti-CD3 antibody + IL-2, 40 to 48 hours, read-out: IL-5 production inhibitory ratio (%); for inhibition at 100 ppm: test compound 100 ppm. The procedure: (§1) Murine spleen cells were treated with anti-mouse CD3 antibody and IL-2 to induce cytokine production. The test compounds were added to the cytokine production system to evaluate their inhibitory effect. Namely, anti-mouse CD3 antibody adjusted to from 10 to 20 μg/ml with borate buffered physiological saline (pH 8.5) was pipetted into a 96-well cell culture plate in an amount of 50 μl/well and left to stand at 4° C. for 18 hours. The unreacted solution was removed, washing with Hank's buffer solution was carried out once, and IL-2 adjusted to 10 ng/ml with a RPMI liquid containing 10% fetal bovine serum (FCS) was pipetted in an amount of 50 μl/well. For the negative control group, a solution alone without anti-CD3 antibody nor IL-2 was applied. Then, the diluted solution of each of the test compounds (concentration: 100 ppm unless otherwise specified) was pipetted in an amount of 50 μl/well, and a cell suspension of 1×10^7 cells/ml, prepared from spleen of Balb/c mice (female, 7 to 10 week old) was pipetted thereinto in an amount of 100 μl/well. After cultivation in an incubator (37° C., 5% carbon dioxide gas) for from 40 to 48 hours, the culture supernatant was recovered to measure the cytokine production amount by ELISA method.
(§2) With respect to interleukin 5 (IL-5) as a typical Th2 type cytokine and interferon γ (IFN-γ) as a typical Th1 type cytokine, measurements were carried out by the following methods, respectively. Namely, quantitative determination of IL-5 was carried out by the following ELISA method. First, rat anti-mouse IL-5 antibody (Endogen Code No. MM-550C) as a primary antibody was diluted with carbonate buffer solution (pH 9.5) to 1 μg/ml, and spread in a 96 well plate (IWAKI, Code No. 3860-096) in an amount of 50 μl/well for coating at 4° C. overnight (16 to 24 hours). Then, the plate was subjected to blocking at 37° C. for 2 hours by phosphate buffered physiological saline containing 10% FCS (pH 7.2) (blocking buffer solution) (250 μl/well). The plate was washed with PBS (washing buffer) containing 0.05% Tween 20 (Nacalai Tesque, Code No. 281-51) four times, and a diluted liquid of the culture supernatant was spread in an amount of 50 μl/well, followed by incubation at room temperature for 1 hour. For preparation of a standard line, recombinant mouse IL-5 (R&D systems, Code No. 405-ML) was employed. The plate was washed with a washing buffer four times, and biotin-labeled rat anti-mouse IL-5 antibody (Pharmingen, Code No. 18062D) as a secondary antibody diluted to 0.5 μg/ml with a blocking buffer containing 0.05% Tween 20 was added thereto (50 μl/well), followed by incubation at room temperature for 1 hour. The plate was washed with a washing buffer four times, strept avidin-labeled peroxidase (ProZyme, Code No. CJ30H001) diluted 800 times with a blocking buffer containing 0.05% Tween 20 was added thereto (50 μl/well), followed by reaction at room temperature for 15 minutes. The plate was washed with a washing buffer four times, and a […] substrate solution (SIGMA, Code No. T-8665) was added thereto in an amount of 100 μl/well for color developing for from 10 to 20 minutes. A 1M sulfuric acid solution was added thereto in an amount of 100 μl/well to terminate the reaction, and absorption (wavelength 450 nm) was measured by means of micro plate reader (SPECTRA max, Wako Pure Chemicals Industries, Ltd.). Quantitative determination of IFN-γ was carried out in the same manner as the measurement of IL-5, employing rat anti-mouse IFN-γ antibody (Pharmingen, Code No. 18181D) and biotin labeled rat anti-mouse IFN-γ antibody (Pharmingen, Code NO. 18112D), as a primary antibody and a secondary antibody, respectively. For preparation of a standard line, recombinant mouse IFN-γ (GENZYME, Code No. 3485) was employed. The experiment was carried out in duplicate, and the average of the cytokine production amount was obtained. […]
Background: In an ELISA, binding on a coated surface is turned into a signal by an enzyme label.

The test system of data set [2] is interferon γ (IFN-γ) production. Nature of the data set: Cytokine production inhibitory effect: IFN-γ production by murine spleen cells treated with anti-mouse CD3 antibody and IL-2 (ELISA). The data set is classed as cell-based, Balb/c mice. Conditions: anti-CD3 antibody + IL-2, 40 to 48 hours, read-out: IFN-γ production inhibitory ratio (%); for inhibition at 100 ppm: test compound 100 ppm. The method, then:
as §1, §2

For `O=C(Nc1ccc(OCc2ncc(C(F)(F)F)cc2Cl)cc1)c1cc([N+](=O)[O-])ccc1Cl` [Compound No. 135, N-(4-(3-chloro-5-trifluoromethyl-2-pyridylmethyloxy)phenyl)-2-chloro-5-nitrobenzamide], the melting point is 193 to 195 °C. Further, the inhibition at 100 ppm in data set [1] amounted to 62%. The inhibition at 100 ppm in data set [2] amounted to 33%.

Compound `Cc1cc(C23CC4CC(CC(C4)C2)C3)ccc1NC(=O)c1ccc(Cl)cc1Cl` [compound 3] showed a melting point of 211 °C. Further, in data set [1], the inhibition at 100 ppm amounted to 79%. Also, the inhibition at 100 ppm in data set [2] is 92%.

`O=C(Nc1ccc(Oc2ccc(C(F)(F)F)cn2)c(Cl)c1)c1ccc(Cl)cc1` [compound 5]: the melting point lay in the range of 186 to 188 °C. Besides, the inhibition at 100 ppm in data set [1] stood at 76%. Further, in data set [2], the inhibition at 100 ppm turned out to be 83%.

For `O=C(Nc1ccc(Oc2ccc(C(F)(F)F)cn2)c(Cl)c1)c1cccc(Cl)c1` [compound 6], the melting point is 160 to 161 °C. In data set [1], the inhibition at 100 ppm worked out at 100%. Also, the inhibition at 100 ppm in data set [2] is 100%.

As for `O=C(Nc1ccc(Oc2ccc(C(F)(F)F)cn2)c(Cl)c1)c1cccc(C(F)(F)F)c1` [compound 7], the melting point was 127 to 129 °C. For the same compound, in data set [1], the inhibition at 100 ppm stood at 100%. Further, the inhibition at 100 ppm in data set [2] is 100%.

The compound `O=C(Nc1ccc(Oc2ccc(C(F)(F)F)cn2)c(Cl)c1)c1ccc(C(F)(F)F)cc1` [compound 8] registered a melting point of 154 to 155 °C. Moreover, the inhibition at 10 ppm in data set [1] (test compound 10 ppm) came out at 58%. Further, in data set [2] (test compound 10 ppm), the inhibition at 10 ppm was found to be 67%.

As to `COc1ccc(C(=O)Nc2ccc(Oc3ccc(C(F)(F)F)cn3)c(Cl)c2)cc1OC` [compound 9], the melting point is 152 to 154 °C. Moreover, the inhibition at 100 ppm in data set [1] was found to be 96%. In addition, the inhibition at 100 ppm in data set [2] was 100%.

Regarding `O=C(Nc1ccc(Oc2ccc(C(F)(F)F)cn2)c(Cl)c1)c1ccccc1O` [compound 15], the melting point fell in the range of 165 to 167 °C. Besides, the inhibition at 100 ppm in data set [1] was found to be 99%. Moreover, the inhibition at 100 ppm in data set [2] amounted to 100%.

For `O=CNc1cccc(C(=O)Nc2ccc(Oc3ccc(C(F)(F)F)cn3)c(Cl)c2)c1O` [compound 17], the melting point was 159 to 161 °C. Moreover, in data set [1], the inhibition at 100 ppm is 100%. The inhibition at 100 ppm in data set [2] amounted to 100%.

Consider `O=C(Nc1ccc(Cc2ccccc2)cc1)c1cc([N+](=O)[O-])ccc1O` [compound 18], for which the melting point was 211.5 to 214.4 °C. In addition, the inhibition at 100 ppm in data set [1] was 100%. For the same compound, in data set [2], the inhibition at 100 ppm came to 100%.

For the compound `O=C(Nc1ccc(C23CC4CC(CC(C4)C2)C3)cc1)c1cc([N+](=O)[O-])ccc1Cl` [compound 21], the melting point is 262 °C. The inhibition at 100 ppm in data set [1] is 96%. The inhibition at 100 ppm in data set [2] came to 89%.

`Cc1cc(C23CC4CC(CC(C4)C2)C3)ccc1NC(=O)c1ccccc1Cl` [compound 22]: the melting point is 154 °C. Further, the inhibition at 100 ppm in data set [1] is 100%. The inhibition at 100 ppm in data set [2] is 100%.

Consider `Cc1cc(C23CC4CC(CC(C4)C2)C3)ccc1NC(=O)c1cccc([N+](=O)[O-])c1` [compound 23], for which the melting point came to 177 °C. In addition, in data set [1], the inhibition at 100 ppm amounted to 100%. Also, the inhibition at 100 ppm in data set [2] was 100%.

In turn, `Cc1cc(C23CC4CC(CC(C4)C2)C3)ccc1NS(=O)(=O)c1ccccc1Cl` [compound 25] returned a melting point of 200 °C. Further, in data set [1], the inhibition at 100 ppm stood at 89%. For the same compound, the inhibition at 100 ppm in data set [2] amounted to 93%.

On to `Cc1ccc(NC(=O)c2cc([N+](=O)[O-])ccc2Cl)c(C)c1` [compound 26], for which the melting point turned out to be 206 °C. For the same compound, the inhibition at 100 ppm in data set [1] was determined as 82%. Also, the inhibition at 100 ppm in data set [2] amounted to 30%.

`COc1ccc(NC(=O)c2cc([N+](=O)[O-])ccc2Cl)cc1` [compound 28] gave a melting point of 154 °C. Further, the inhibition at 100 ppm in data set [1] came out at 100%. The inhibition at 100 ppm in data set [2] was found to be 100%.
